Results published in ChEMBL document CHEMBL1158440, “Linear disulfide-containing low polymer as efficient DNA cleavage reagent” (Bioorg Med Chem Lett, 2009).
Calls of active or inactive are those of the source. The rule behind the calls is not given here.

Columns and labels:
Format in all cases: nucleic-acid assay
Nucleic Acid [1] = test: Induction of supercoiled Escherichia coli pUC19 cleavage assessed as formation of nicked DNA at 56 mg/L in phosphate buffered saline at pH 7.4 upto 24 hrs by agarose gel electrophoresis relative to control
Nucleic Acid [2] = test: Induction of supercoiled Escherichia coli pUC19 cleavage assessed as formation of nicked DNA at 28 mg/L in phosphate buffered saline at pH 7.4 after 24 hrs by agarose gel electrophoresis relative to control
Nucleic Acid [3] = test: Induction of supercoiled Escherichia coli pUC19 cleavage assessed as formation of nicked DNA at 56 mg/L in phosphate buffered saline at pH 7.4 after 24 hrs by agarose gel electrophoresis relative to control
Calf thymus DNA = test: Binding affinity to calf thymus DNA assessed as change in melting temperature at 18 mg/L by spectrophotometry; conditions: Bos taurus
Nucleic Acid [4] = test: Induction of supercoiled Escherichia coli pUC19 cleavage assessed as formation of nicked DNA at 56 mg/L in phosphate buffered saline at pH 7.4 after 8 hrs by agarose gel electrophoresis relative to control
Nucleic Acid [5] = test: Induction of supercoiled Escherichia coli pUC19 cleavage assessed as formation of nicked DNA at 7 mg/L in phosphate buffered saline at pH 7.4 after 24 hrs by agarose gel electrophoresis relative to control
Nucleic Acid [6] = test: Induction of supercoiled Escherichia coli pUC19 cleavage assessed as formation of nicked DNA at 14 mg/L in phosphate buffered saline at pH 7.4 after 24 hrs by agarose gel electrophoresis relative to control
Nucleic Acid [7] = test: Induction of supercoiled Escherichia coli pUC19 cleavage assessed as formation of nicked DNA at 56 mg/L in phosphate buffered saline at pH 7.4 after 24 hrs by agarose gel electrophoresis in presence of NaN3
Nucleic Acid [8] = test: Induction of supercoiled Escherichia coli pUC19 cleavage assessed as formation of nicked DNA at 56 mg/L in phosphate buffered saline at pH 7.4 after 24 hrs by agarose gel electrophoresis in presence of tert-butyl alcohol
Nucleic Acid [9] = test: Induction of supercoiled Escherichia coli pUC19 cleavage assessed as formation of nicked DNA at 56 mg/L in phosphate buffered saline at pH 7.4 after 24 hrs by agarose gel electrophoresis in presence of DMSO
Nucleic Acid [10] = test: Induction of supercoiled Escherichia coli pUC19 cleavage assessed as formation of nicked DNA at 56 mg/L in phosphate buffered saline at pH 7.4 after 24 hrs by agarose gel electrophoresis in presence of potassium iodide

| SMILES | Activity (Nucleic Acid [1]) [%] | Activity (Nucleic Acid [2]) [%] | Activity (Nucleic Acid [3]) [%] | ΔTm (Calf thymus DNA) [°C] | Activity (Nucleic Acid [4]) | Activity (Nucleic Acid [5]) [%] | Activity (Nucleic Acid [6]) [%] | Activity (Nucleic Acid [7]) | Activity (Nucleic Acid [8]) | Activity (Nucleic Acid [9]) | Activity (Nucleic Acid [10]) |
| --- | --- | --- | --- | --- | --- | --- | --- | --- | --- | --- | --- |
| O=C(CS)N1CCNCCN(C(=O)CS)CCNCC1 | 92 | 44 | 63 | 3.4 | 35% | 20 | 24 |  |  |  |  |
| O=C(CS)N1CCNCCN(C(=O)CSSCC(=O)N2CCNCCN(C(=O)CSSCC(=O)N3CCNCCN(C(=O)CSSCC(=O)N4CCNCCN(C(=O)CSSCC(=O)N5CCNCCN(C(=O)CS)CCNCC5)CCNCC4)CCNCC3)CCNCC2)CCNCC1 |  | 92 | 100 | 4 | Active | 31 | 66 | inactive | inactive | Active | inactive |
